Assay results as given in PubChem BioAssay AID1963422 (Molecular Pharmacology Branch, DTP, NCI, 2024).

System: 463943-066-T-J2-PDC complex spheroid growth
Assay: Anticancer human tumor 463943-066-T-J2-PDC patient-derived colon adenocarcinoma cell line growth inhibition [Asc]
Settings: for IC50: curve of first compound; for viability, T/C: stronger effect = lower value
How it was run: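 Tumor cells were grown as multicellular spheroids with stromal HUVEC and mesenchymal stem cells and treated singly or in combination. Concentrations fell in half-log steps from the clinical Cmax, or from 10 microM where none was known.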
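Note: compound exposure lasted 7 days.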
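Throughout, for viability, T/C: 100% = DMSO vehicle control wells.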

`C=CC(=O)N1CCN(c2nc(=O)n(-c3c(C)ccnc3C(C)C)c3nc(-c4c(O)cccc4F)c(F)cc23)C(C)C1` (configuration not stated) + CCN1C(C(=O)NC23CCC(C(=O)O)(CC2)CC3)C(c2cccc(Cl)c2F)C2(C(=O)Nc3cc(Cl)ccc32)C12CCCCC2 was tested, and the IC50 (second compound 0.00949 µM) was > 10 µM, the IC50 (second compound 0.03 µM) was > 10 µM and the IC50 (second compound 0.0949 µM) was > 10 µM. The IC50 (second compound 0.3 µM) was > 10 µM, the IC50 (second compound 0.949 µM) was > 10 µM and the IC50 (second compound 3 µM) was > 10 µM. It also gave a viability, T/C (second compound 0.00949 µM, first compound 0.0316 µM) of 94.4%, a viability, T/C (second compound 0.00949 µM, first compound 0.1 µM) of 96.5% and a viability, T/C (second compound 0.00949 µM, first compound 0.316 µM) of 93%. It also gave a viability, T/C (second compound 0.00949 µM, first compound 1 µM) of 107%, a viability, T/C (second compound 0.00949 µM, first compound 3.16 µM) of 104% and a viability, T/C (second compound 0.00949 µM, first compound 10 µM) of 98%. The viability, T/C (second compound 0.03 µM, first compound 0.0316 µM) was 108%, the viability, T/C (second compound 0.03 µM, first compound 0.1 µM) was 96.8% and the viability, T/C (second compound 0.03 µM, first compound 0.316 µM) was 99.9%. The viability, T/C (second compound 0.03 µM, first compound 1 µM) was 103%, the viability, T/C (second compound 0.03 µM, first compound 3.16 µM) was 104% and the viability, T/C (second compound 0.03 µM, first compound 10 µM) was 88.4%. It also gave a viability, T/C (second compound 0.0949 µM, first compound 0.0316 µM) of 92.4%, a viability, T/C (second compound 0.0949 µM, first compound 0.1 µM) of 88.6% and a viability, T/C (second compound 0.0949 µM, first compound 0.316 µM) of 91%. For the same compound, the viability, T/C (second compound 0.0949 µM, first compound 1 µM) was 93.2%, the viability, T/C (second compound 0.0949 µM, first compound 3.16 µM) was 97.3% and the viability, T/C (second compound 0.0949 µM, first compound 10 µM) was 86.3%. For the same compound, the viability, T/C (second compound 0.3 µM, first compound 0.0316 µM) was 84.4%, the viability, T/C (second compound 0.3 µM, first compound 0.1 µM) was 84.8% and the viability, T/C (second compound 0.3 µM, first compound 0.316 µM) was 86.2%. It also gave a viability, T/C (second compound 0.3 µM, first compound 1 µM) of 85.5%, a viability, T/C (second compound 0.3 µM, first compound 3.16 µM) of 86.7% and a viability, T/C (second compound 0.3 µM, first compound 10 µM) of 80.3%. The viability, T/C (second compound 0.949 µM, first compound 0.0316 µM) was 76.5%, the viability, T/C (second compound 0.949 µM, first compound 0.1 µM) was 77% and the viability, T/C (second compound 0.949 µM, first compound 0.316 µM) was 74%. The viability, T/C (second compound 0.949 µM, first compound 1 µM) was 77%, the viability, T/C (second compound 0.949 µM, first compound 3.16 µM) was 78.2% and the viability, T/C (second compound 0.949 µM, first compound 10 µM) was 77%. It also gave a viability, T/C (second compound 3 µM, first compound 0.0316 µM) of 71.7%, a viability, T/C (second compound 3 µM, first compound 0.1 µM) of 73.3% and a viability, T/C (second compound 3 µM, first compound 0.316 µM) of 75.9%. It also gave a viability, T/C (second compound 3 µM, first compound 1 µM) of 77.6%, a viability, T/C (second compound 3 µM, first compound 3.16 µM) of 72.5% and a viability, T/C (second compound 3 µM, first compound 10 µM) of 72.5%.
